# According to PubChem BioAssay AID624258 (Broad Institute, 2012):
# Calls of active or inactive are those of the source. How the calls were made is not given here.
# Columns and labels:
# [1] = system: S. cerevisiae SKN7-toxicity growth rescue, plate reader; experiment: Yeast SKN7 toxicity growth rescue counterscreen, Saccharomyces cerevisiae, plate reader, dose confirmatory (AID 624258);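 further: growth read after three days of incubation at 30 °C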;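 on growth rescue activity: 0% = median of neutral control wells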
# [2] = as above; settings: S. cerevisiae SKN7-toxicity growth rescue, plate reader
SMILES,AC40 [1] [µM],growth rescue activity ([2]; at 19.5 µM (top of the series)),other results
COc1ccc(-n2nc(C#N)c(Cl)cc2=O)cc1,5.22,,
Cc1ccc(SCCNC(=S)Nc2ccc(C)c(C)c2)cc1,14.2,,
Cc1onc(-c2ccccc2)c1C(=O)OCc1nnc(-c2ccc([N+](=O)[O-])cc2)o1,2.27,,
COc1ccc(N2C(=O)C(Cl)=C(Nc3ccccc3O)C2=O)cc1,4.9,,
O=S(=O)(NCC1COc2ccccc2O1)c1ccc2ccccc2c1 (stereo unspecified),8.68,,
Cc1ccc(Sc2ccc([N+](=O)[O-])cc2[N+](=O)[O-])nc1,10.1,,
Oc1cc(Nc2ccccc2)cc2cccnc12,3.81,,
O=[N+]([O-])c1cc(Cl)cc(/C=N/NC(=S)Nc2ccc(S(=O)(=O)N3CCOCC3)cc2)c1O,2.22,,
Cc1ccc(NC(=O)c2cc(N3C(=O)C=CC3=O)ccc2Cl)cc1C,0.342,,
COc1cccc(/C=N/Nc2ncnc(Cl)c2N)c1O,3.72,,
S=C1SCN(Cc2cccnc2)CN1Cc1cccnc1,1.01,,
CCN(CC)c1ccc(/C=N/NC(=O)c2cccc(S(=O)(=O)N3CCOCC3)c2)c(O)c1,1.39,,
CCc1oc2ccccc2c1C(=O)c1cc(Br)c(O)c(Br)c1,0.912,,
CCOC(=O)C1=C(Cc2ccc(OC)cc2)C(=O)c2ccccc2C1=O,2.67,,
CSc1nccc(NC(=O)c2ccc(C(C)(C)C)cc2)n1,7.82,,
CC(NC(=S)NC1CCC(C(C)(C)C)CC1)c1ccccc1 (stereo unspecified),6.16,,
CCCc1cc(-c2n[nH]c(=S)n2-c2cccc(C)c2)cs1,17,,
Cc1onc(-c2ccccc2)c1C(=O)NC(=S)NNC(=O)c1cc(-c2ccc(F)cc2)n[nH]1,2.1,,
CSc1cccc(NC(=O)/C=C/c2cccc(Cl)c2)c1,4.52,,
CCc1nc2ccccc2c(=O)n1NC(=O)c1c(O)c2ccccc2n(CC)c1=O,2.09,,
COc1cccc2c1C(=O)c1c(O)c3c(c(O)c1C2=O)C[C@@](O)(C(=O)CO)C[C@@H]3O[C@H]1C[C@H](N)[C@H](O)[C@H](C)O1,6.21,,
Cc1oc2c(c1C(=O)c1ccc(Cl)cc1)C(=O)C(=O)c1ccccc1-2,1.27,,
O=C(NNC(=O)c1cc(Cl)ccc1O)c1ccc(NS(=O)(=O)c2cccs2)cc1,5.75,,
C/C(CC(=O)Nc1ccccn1)=N\NC(=O)c1ccccc1O,5.11,,

SMILES,AC40 [1] [µM],growth rescue activity ([2]; at 19.5 µM (top of the series)),other results
Cc1ccc(NC2=CC(=O)C(=O)c3ccccc32)c(C)c1,18.7,,
Clc1cccc(N/N=C(\Cc2nc3ccccc3[nH]2)c2ccccc2)c1,2.61,,
COc1ccc(/C=C(\C#N)c2c[nH]c3ccccc23)cc1,17.6,,
CCCCCCCCCCOC(=O)Cn1c(COc2ccccc2)[n+](C)c2ccccc21,3.02,,
O=C(Oc1cccc(C(=S)N2CCOCC2)c1)c1ccc([N+](=O)[O-])cc1[N+](=O)[O-],16.4,,
N#CC1=C(N)NC(=S)C(C(N)=O)C1c1ccc(Cl)cc1Cl (stereo unspecified),10.5,,
O=C(CSc1nc2ccccc2s1)N/N=C/c1cc([N+](=O)[O-])ccc1O,3.97,,
COc1ccc2c(c1)S/C(=C\C(=O)c1ccncc1)N2C,1.76,,
S=C(NCCCc1ccccc1)Nc1ccc(Br)cc1,4.26,,
CCCn1nc(C(=O)N2CCN(S(=O)(=O)c3ccc(C)c(C)c3)CC2)c2ccccc2c1=O,,-50.4% (inactive),
Cc1cc(O)ccc1N=Cc1c(C(F)(F)F)[nH][nH]c1=O,,-11.8% (inactive),
CC(=O)Oc1ccc(OC(C)=O)c(SCCCCCCl)c1,,-46.3% (inactive),
CN(C(=O)COC(=O)c1ccc([N+](=O)[O-])cc1Cl)C1CCCCC1,,139% (inactive),
Fc1ccccc1COc1ccc(Br)cc1CNCc1ccncc1,,-7.59% (inactive),
O=C(CCl)NCCCCCCCCCNC(=O)CCl,,8.47% (inactive),
COc1ccc(C2=CC(=O)C[C@H](c3ccc4c(c3)OCO4)C2)cc1,,89.7% (inactive),
CC[C@@H](C(=O)[C@@H](C)[C@@H](O)[C@H](C)[C@@H]1O[C@@H]([C@@H](CC)C(=O)O)CC[C@@H]1C)[C@H]1O[C@]2(C=C[C@@H](O)[C@]3(CC[C@@](C)([C@H]4CC[C@](O)(CC)[C@H](C)O4)O3)O2)[C@H](C)C[C@@H]1C,,-61.6% (inactive),
O=C(CN1CC[n+]2c(-c3cccs3)csc21)c1ccc(-c2ccccc2)cc1,,-63.4% (inactive),
CC(C)NC(=O)NC(=O)COC(=O)c1ccc([N+](=O)[O-])cc1Cl,,,growth rescue activity ([2]; at 6.8 µM (top of the series)): -6.28% (inactive)
Cc1onc(-c2ccccc2)c1C(=O)NC(=S)NNC(=O)c1ccc(O)cc1O,,-33.4% (inactive),
COc1cc(/C=N/O)cc(Br)c1OCc1cccc(Cl)c1,,-82% (inactive),
O=c1oc(-c2ccccc2)cc(Cl)c1Cl,,-71.1% (inactive),
COc1ccc(O)c(C(=O)CC(=O)c2ccccc2C)c1,,-60.2% (inactive),
Cc1cc(C(=O)COC(=O)Cc2n[nH]c(=O)c3ccccc23)c(C)n1-c1cccc(C(F)(F)F)c1,,,growth rescue activity ([2]; at 6.8 µM (top of the series)): -21.5% (inactive)

SMILES,AC40 [1] [µM],growth rescue activity ([2]; at 19.5 µM (top of the series)),other results
CC(=O)NC(c1ccc(C)cc1)c1cc([N+](=O)[O-])c2cccnc2c1O (stereo unspecified),,61% (inactive),
C[C@]12CCC(=O)C=C1CCC1C2CC[C@@]2(C)C1CC[C@]2(C)O (stereo partly specified),,-16.5% (inactive),
Cc1cc(Nc2ccccc2)nn1C(=O)c1ccccc1,,7.09% (inactive),
CC12CCC(O)CC1=CCC1C2CCC2(C)C3=NN=CC3CC12 (stereo unspecified),,-53.7% (inactive),
Cn1c(-c2ccccc2)cnc1NCc1ccc(-c2ccccc2)cc1,,-67.3% (inactive),
O=C(O)CSc1cc(NS(=O)(=O)c2ccc(Cl)cc2)c2ccccc2c1O,,-5.81% (inactive),
COC(=O)COC(=O)c1ccccc1NC(=O)c1ccccc1,,-40.9% (inactive),
S=C1NC[C@H](c2ccccc2)N1CCCCC1CCCCC1,,85.2% (inactive),
CCc1ccc(OCc2n[nH]c(=S)n2Cc2ccccc2)cc1,,-30.5% (inactive),
Oc1ccc(Br)cc1/C=N/Nc1ccccn1,,-73.9% (inactive),
Nc1nonc1C(=O)NCCN=Cc1cc(Cc2ccccc2)cc(Br)c1O,,-81% (inactive),
Cc1cc(C)c2sc(NNC(=O)c3ccc(S(=O)(=O)N4CCc5ccccc5C4)cc3)nc2c1,,-31.4% (inactive),
COc1ccc(C(C)(C)C)cc1NC(=O)COC(=O)c1ccc([N+](=O)[O-])o1,,-88.2% (inactive),
O=c1c2ccccc2nc(-c2ccc(-c3ccccc3)cc2)n1-c1ccncc1,,-56.1% (inactive),
Cc1ccc(C(=O)C(SC(C)(C)C)n2cncn2)cc1 (stereo unspecified),,,growth rescue activity ([2]; at 6.8 µM (top of the series)): 27.6% (inactive)
O=C(Oc1ccccc1C(=S)N1CCOCC1)c1ccc([N+](=O)[O-])cc1[N+](=O)[O-],,-8.27% (inactive),
Nc1cc2nc3ccccc3oc-2cc1=O,,-51.6% (inactive),
O=C(Nc1ccc(Cl)cc1)NC1CCCCC1Cc1ccco1 (stereo unspecified),,,growth rescue activity ([2]; at 6.8 µM (top of the series)): 76.3% (inactive)
CC(C)C(=O)NC(c1ccco1)c1ccc2cccnc2c1O (stereo unspecified),,-67.3% (inactive),
CCCSC(=S)c1c(C)[nH]n(-c2ccccc2)c1=O,,-53% (inactive),
O=C(O)CSc1nc(-c2ccc(Cl)cc2)nc2c1oc1ccccc12,,-84.1% (inactive),
O=C(Nc1ccc(C2=NCCN2)cc1)c1ccc(C(=O)Nc2ccc(C3=NCCN3)cc2)c(Cl)c1,,-69% (inactive),
Nc1nc(-c2ccccc2)c(-c2ccc([N+](=O)[O-])cc2)s1,,-79.9% (inactive),
